In publication PMC7029851, “Antibacterial activity of novel dual bacterial DNA type II topoisomerase inhibitors” (PLoS ONE, 2020):
Values after ≈ are worked out from the molar mass of the structure shown. Like-named read-outs stand apart in the source and are kept apart here.

Legend:
A. baumannii APV00473 = test: MIC, broth microdilution; type: cell-based; conditions: Acinetobacter baumannii; A. baumannii APV00473, ciprofloxacin-resistant
Protocol: (§1) MICs were determined by the broth microdilution method (the agar dilution method was used only for N. gonorrhoeae) according to CLSI guidelines.

A. baumannii ATCC 19606 = test: MIC, broth microdilution; type: cell-based; conditions: Acinetobacter baumannii, ATCC19606; A. baumannii ATCC 19606, ciprofloxacin-susceptible
Protocol: as §1

E. coli 4SI = test: MIC, broth microdilution; type: cell-based; conditions: Escherichia coli, ciprofloxacin-resistant
Protocol: as §1

S. pyogenes APV00074 = test: MIC, broth microdilution; type: cell-based; conditions: Streptococcus pyogenes; S. pyogenes APV00074, ciprofloxacin-susceptible
Protocol: as §1

S. pyogenes APV00083 = test: MIC, broth microdilution; type: cell-based; conditions: Streptococcus pyogenes; S. pyogenes APV00083, ciprofloxacin-susceptible
Protocol: as §1

C. difficile ATCC 700057 = test: MIC, broth microdilution; type: cell-based, Clostridium difficile; conditions: Clostridioides difficile, ATCC700057
Protocol: MICs were determined by the broth microdilution method (the agar dilution method was used only for N. gonorrhoeae) according to CLSI guidelines. […] The MIC values of antibiotics used in clinical practice were interpreted according to the susceptibility interpretive criteria reported in the appropriate CLSI Tables (M100-S25, CLSI, 2015).

[1] = system: H. influenzae AcrA- mutant; test: microbe, parasite or virus in culture; type: cell-based; conditions: Haemophilus influenzae
Protocol: (§2) The bacterial reference strains used in this study were purchased from ATCC (American Type Culture Collection) via LGC Standards (Middlesex, UK). […] Clinical MDR isolates were provided by Aptuit, the IHMA Europa Sàrl repository (Epalinges, Switzerland) and the Statens Serum Institute (Copenhagen, Denmark).
as §1

[2] = system: K. pneumoniae AcrAB- mutant; test: microbe, parasite or virus in culture; type: cell-based; conditions: Klebsiella pneumoniae
Protocol: as §2, §1

[3] = system: S. aureus clinical isolates (n = 10); test: microbe, parasite or virus in culture; type: cell-based, Staphylococcus aureus; conditions: for MIC50 / MIC90 / MIC range: S. aureus MDR clinical isolates (n = 10)
Protocol: as §2, §1
(§3) The results obtained using clinical isolates are reported as MIC50 and MIC90 values.

[4] = system: C. difficile clinical isolates (n = 21); test: MIC, multidrug-resistant clinical isolates; type: cell-based, Clostridium difficile; conditions: Clostridioides difficile, C. difficile clinical isolates (n = 21); for MIC50: read-out: MIC50; for MIC90: read-out: MIC90; for MIC: read-out: MIC range
Protocol: as §2, §1, §3

[5] = system: E. coli clinical isolates (n = 36); test: MIC, multidrug-resistant clinical isolates; type: cell-based, Escherichia coli; conditions: Escherichia coli, E. coli MDR clinical isolates (n = 36); for MIC50: read-out: MIC50; for MIC90: read-out: MIC90
Protocol: as §2, §1, §3

[6] = system: A. baumannii clinical isolates (n = 10); test: microbe, parasite or virus in culture; type: cell-based, Acinetobacter baumannii; conditions: for MIC50 / MIC90: Acinetobacter baumannii
Protocol: as §2, §1, §3

S. aureus ATCC 29213 [7] = test: Minimal bactericidal concentration; type: cell-based, Staphylococcus aureus
Protocol: (§4) Minimal bactericidal concentrations (MBCs) were determined according to the procedure described by Knapp. Viable counts were performed after plates were incubated at 37°C for 24 hours. The MBC was defined as the lowest concentration that reduced the viability of the initial bacterial inoculum by ≥99.9%.

S. aureus BAA-1720 = test: Minimal bactericidal concentration; type: cell-based, Staphylococcus aureus
Protocol: as §4

S. aureus ATCC 29213 [8] = test: Time-kill assay; type: cell-based, Staphylococcus aureus
Protocol: (§5) Time-kill experiments were performed according to the procedure reported by Knapp. […] A drug-free control was included in each experiment. The bacterial cultures were standardized to obtain an initial inoculum that ranged from 5×10^5 to 5×10^6 CFU/ml. The cultures were incubated at 37°C in a shaking bath. At 0, 2, 4, 8 and 24-hour intervals, viable counts were performed by spotting (in triplicate) 10 μl aliquots of suitable dilutions of the cultures onto Mueller-Hinton agar (MHA, Oxoid, Basingstoke, UK) plates. After incubation at 37°C for 24 hours, the bactericidal activity, namely, the ability to reduce the initial inoculum by 3 log10 CFU/ml, was assessed for each tested concentration over time.

S. aureus ATCC BAA-1720 = test: Time-kill assay; type: cell-based, Staphylococcus aureus
Protocol: as §5

E. coli ATCC 25922 = test: Post-antibiotic effect (PAE); type: cell-based, Escherichia coli; conditions: 1× and 4× MIC
Protocol: (§6) A drug-free control was included in each experiment. After being exposed to the drug for 1 hour, viable counts were conducted in triplicate by spotting aliquots (10 μl) of suitable dilutions onto MHA plates. The drugs were removed by diluting the bacterial cultures (1:1000) in Cation-Adjusted Mueller-Hinton Broth (CAMHB; Sigma-Aldrich). The diluted cultures were incubated in a shaking bath at 37°C. To monitor the ongoing suppression of bacterial growth over time (5 hours), aliquots from each broth culture were periodically collected, diluted and plated to perform subsequent viable counts (in triplicate).

S. aureus ATCC 29213 [9] = test: Post-antibiotic effect (PAE); type: cell-based, Staphylococcus aureus; conditions: 1-hour exposure, range over 1×, 4× and 16× MIC
Protocol: as §6

[10] = system: CYP1A, CYP2B6, CYP2C8, CYP2C9, CYP2D6 and CYP3A4; test: Inhibition of P450 isoenzymes; type: in vitro ADME; conditions: human, read-out: % inhibition of CYP450 isoenzymes other than CYP2C19
Excerpt: (§7) Inhibition of P450 isoenzymes.

CYP2C19 = CYP2C19 (Homo sapiens, UniProt P33261); test: Inhibition of P450 isoenzymes; type: in vitro ADME
Excerpt: as §7

[11] = system: S. aureus ATCC 29213 and S. aureus BAA-1720; test: MIC in the presence of 20% human serum
[12] = Staphylococcus aureus, read-out: MIC50
[13] = Staphylococcus aureus, read-out: MIC90

CYP2C19, sequence (P33261 whole entry): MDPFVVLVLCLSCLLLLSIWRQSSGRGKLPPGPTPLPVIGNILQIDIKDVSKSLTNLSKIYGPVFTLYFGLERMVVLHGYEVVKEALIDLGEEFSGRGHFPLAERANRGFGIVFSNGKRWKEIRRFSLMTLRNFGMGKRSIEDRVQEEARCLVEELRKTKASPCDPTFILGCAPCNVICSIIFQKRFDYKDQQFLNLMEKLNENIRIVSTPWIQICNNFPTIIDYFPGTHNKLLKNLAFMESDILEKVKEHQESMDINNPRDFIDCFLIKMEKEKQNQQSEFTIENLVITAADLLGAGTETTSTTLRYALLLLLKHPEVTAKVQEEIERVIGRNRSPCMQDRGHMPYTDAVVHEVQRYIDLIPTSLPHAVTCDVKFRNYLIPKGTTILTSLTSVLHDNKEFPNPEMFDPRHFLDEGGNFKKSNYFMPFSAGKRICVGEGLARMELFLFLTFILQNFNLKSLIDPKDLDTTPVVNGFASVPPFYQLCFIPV

With `O=C1COc2ncc(F)cc2N1[C@H]1CC[C@H](NCc2cc3c(=O)oc4ccc(F)cc4c3[nH]2)CC1` [Compound 1, 8-fluoro-2-({[trans-4-(7-fluoro-2-oxo-2,3-dihydro-1H-pyrido[2,3-b][1,4]oxazin-1-yl)cyclohexyl]amino}methyl)[1]benzopyrano[4,3-b]pyrrol-4(1H)-one] the MIC (A. baumannii APV00473) was ≤ 0.06 µg/mL, the MIC (A. baumannii ATCC 19606) was ≤ 0.06 µg/mL and the MIC (E. coli 4SI) was 0.25 µg/mL (≈ 0.52 µM). The MIC (S. pyogenes APV00074) was 0.5 µg/mL (≈ 1.04 µM), the MIC (S. pyogenes APV00083) was 1 µg/mL (≈ 2.08 µM) and the MIC (C. difficile ATCC 700057) was 1 µg/mL (≈ 2.08 µM). The MIC [1] was ≤ 0.016 µg/mL, the MIC [2] was 0.03 µg/mL (≈ 0.0624 µM) and the MIC50 [3] was 0.125 µg/mL (≈ 0.26 µM). It also gave an MIC90 [3] of 0.5 µg/mL (≈ 1.04 µM), an MIC range [3] of 0.12 to 0.5 µg/mL and an MIC ([3]; Staphylococcus aureus, MRSA, S. aureus APV0063, MRSA) of 0.12 µg/mL (≈ 0.25 µM). For the same compound, the MIC ([3]; Staphylococcus aureus, MRSA, S. aureus APV0064, MRSA) was 0.12 µg/mL (≈ 0.25 µM), the MIC ([3]; Staphylococcus aureus, MRSA, S. aureus APV0065, MRSA) was 0.12 µg/mL (≈ 0.25 µM) and the MIC ([3]; Staphylococcus aureus, S. aureus APV00045, M (macrolide resistance)) was 0.5 µg/mL (≈ 1.04 µM). The MIC ([3]; Staphylococcus aureus, S. aureus APV0048, MLSi) was 0.25 µg/mL (≈ 0.52 µM), the MIC ([3]; Staphylococcus aureus, S. aureus APV0049, MLSi) was 0.5 µg/mL (≈ 1.04 µM) and the MIC ([3]; Staphylococcus aureus, S. aureus APV0052, MLSc) was 0.5 µg/mL (≈ 1.04 µM). It also gave an MIC ([3]; Staphylococcus aureus, S. aureus APV0053, MLSc) of 0.25 µg/mL (≈ 0.52 µM), an MIC ([3]; Staphylococcus aureus, S. aureus APV00280, M (macrolide resistance)) of 0.12 µg/mL (≈ 0.25 µM) and an MIC ([3]; Staphylococcus aureus, S. aureus APV00281, M (macrolide resistance)) of 0.12 µg/mL (≈ 0.25 µM). The MIC50 [3, 12] was 0.12 µg/mL (≈ 0.25 µM), the MIC90 [3, 13] was 0.5 µg/mL (≈ 1.04 µM) and the MIC50 [4] was 1 µg/mL (≈ 2.08 µM). It also gave an MIC90 [4] of 1 µg/mL (≈ 2.08 µM), an MIC [4] of 0.25 to 2 µg/mL (≈ 0.52 to 4.16 µM) and an MIC [5] of 0.25 to 16 µg/mL (≈ 0.52 to 33.3 µM). The MIC50 [5] was 1 µg/mL (≈ 2.08 µM), the MIC90 [5] was 1 µg/mL (≈ 2.08 µM) and the MIC range [6] was ≤0.06 to 0.12 µg/mL. For the same compound, the MIC50 [6] was 0.12 µg/mL (≈ 0.25 µM), the MIC90 [6] was 0.12 µg/mL (≈ 0.25 µM) and the MBC/MIC (S. aureus ATCC 29213 [7]) was 16. For the same compound, the MBC (S. aureus ATCC 29213 [7]; Staphylococcus aureus, ATCC29213, ≥99.9% reduction of inoculum) was 4 µg/mL (≈ 8.33 µM), the MBC/MIC (S. aureus BAA-1720) was 2 and the MBC (S. aureus BAA-1720; Staphylococcus aureus, BAA1720, ≥99.9% reduction of inoculum) was 1 µg/mL (≈ 2.08 µM). The “Bactericidal activity in time-kill (reduction of 3 log10 CFU/ml)” value (S. aureus ATCC 29213 [8]; 1× to 4× MIC (compound 1 also 8× and 16× MIC), over 24 hours) was “bactericidal effect”, the “Bactericidal activity in time-kill” value (S. aureus ATCC 29213 [8]; 8× and 16× MIC, after 24 hour incubation) was “effective” and the “Bactericidal activity in time-kill” value (S. aureus ATCC 29213 [8]; concentrations up to 4× MIC) was “no bactericidal activity”. The “Bactericidal activity in time-kill (reduction of 3 log10 CFU/ml)” value (S. aureus ATCC BAA-1720; 1× to 4× MIC, over 24 hours) was “bactericidal effect”, the “Concentration with bactericidal activity in time-kill” value (S. aureus ATCC BAA-1720; 4× MIC, after a 24 hour incubation) was 2 µg/mL and the “PAE compared with ciprofloxacin” value (E. coli ATCC 25922) was “consistently higher”. The PAE (S. aureus ATCC 29213 [9]) was 54 to 58 min, the inhibition at 10 µM [10] was ≤ 35% and the inhibition at 10 µM (CYP2C19) was 52%. For the same compound, the “Change of MIC in the presence of 20% human serum” value [11] was “two-fold increase”.
In the case of `Cl.O=c1oc2ccc(F)cc2c2[nH]c(CN[C@H]3CC[C@H](n4c(=O)ccc5ncc(F)cc54)CC3)cc12` [Compound 3, 8-fluoro-2-({[trans-4-(7-fluoro-2-oxo-1,5-naphthyridin-1(2H)-yl)cyclohexyl]amino}methyl)[1]benzopyrano[4,3-b]pyrrol-4(1H)-one hydrochloride], the MIC (A. baumannii APV00473) is reported as ≤ 0.06 µg/mL, the MIC (A. baumannii ATCC 19606) is reported as ≤ 0.06 µg/mL and the MIC (E. coli 4SI) is reported as 0.12 µg/mL. The MIC (S. pyogenes APV00074) was ≤ 0.06 µg/mL, the MIC (S. pyogenes APV00083) was 0.12 µg/mL and the MIC (C. difficile ATCC 700057) was 0.25 µg/mL. For the same compound, the MIC [1] was 0.06 µg/mL, the MIC [2] was ≤ 0.016 µg/mL and the MIC range [3] was ≤0.06 µg/mL. For the same compound, the MIC50 [3, 12] was ≤ 0.06 µg/mL, the MIC90 [3, 13] was ≤ 0.06 µg/mL and the MIC50 [4] was 0.12 µg/mL. For the same compound, the MIC90 [4] was 0.25 µg/mL, the MIC [4] was 0.06 to 0.25 µg/mL and the MIC [5] was 0.25 to 4 µg/mL. The MIC50 [5] was 1 µg/mL, the MIC90 [5] was 2 µg/mL and the MIC range [6] was ≤0.06 to 0.12 µg/mL. The MIC50 [6] was ≤ 0.06 µg/mL and the MIC90 [6] was 0.12 µg/mL.
